Laboratory results: ChEMBL document CHEMBL1201862, “PubChem BioAssay data set” (2004)
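Briefly, cells in 96-well plates were exposed to five compound concentrations for 48 h, and endpoints were estimated by linear interpolation. GI50 is the concentration that inhibits growth by half.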 The source made the active and inactive calls. Cut-off read from the data, not from the text of the source: active = GI50 up to about 1.1 µM and inactive = higher.

Key:
Experiment in all cases: growth of human tumour cells (NCI), 48 h
MDA-MB-435 = test system: MDA-MB-435
SR = test system: SR
SNB-75 = test system: SNB-75
UACC-257 = test system: UACC-257
A549 = test system: A549
NCI-H460 = test system: NCI-H460
PC-3 = test system: PC-3
EKVX = test system: EKVX
HL-60 = test system: HL-60
ACHN = test system: ACHN
MDA-N = test system: MDA-N
HOP-18 = test system: HOP-18
XF498 = test system: XF498
SK-MEL-28 = test system: SK-MEL-28
HOP-92 = test system: HOP-92
HCC 2998 = test system: HCC 2998
SK-MEL-2 = test system: SK-MEL-2
DMS-114 = test system: DMS-114
NCI-H226 = test system: NCI-H226
M19-MEL = test system: M19-MEL

Measured: GI50

N#Cc1c(NC(=S)NC(=O)c2ccccc2)nc2c(c1-c1ccccc1)CCC2
inactive: MDA-MB-435 > 100 µM | SR > 100 µM | SNB-75 22.7 µM | UACC-257 > 100 µM | A549 > 100 µM | NCI-H460 > 100 µM | PC-3 > 100 µM | EKVX 24.5 µM | HL-60 > 100 µM | ACHN > 100 µM | MDA-N > 100 µM

O=c1c(C(c2ccc(Cl)cc2)c2c(O)c3ccccc3n(-c3ccccc3)c2=O)c(O)c2ccccc2n1-c1ccccc1
inactive: HOP-18 > 100 µM | SR 7.43 µM | XF498 18.8 µM | A549 15.2 µM | SK-MEL-28 > 100 µM | HOP-92 16.7 µM | HCC 2998 23.3 µM | SK-MEL-2 19.5 µM | DMS-114 28.7 µM | EKVX 17.2 µM | NCI-H226 73.6 µM | M19-MEL 48.1 µM | ACHN 7.67 µM

O=C(NN=C1CCCCC1)NN=C1CCCCC1
inactive: MDA-MB-435 > 100 µM | SNB-75 > 100 µM | UACC-257 > 100 µM | SK-MEL-28 > 100 µM | NCI-H460 > 100 µM | PC-3 > 100 µM | MDA-N > 100 µM
